Experimental data from US10131652B2, “Pyrimidinyloxy benzene derivatives as herbicides” (E. I. DU PONT DE NEMOURS AND COMPANY, priority 2014, dated 2018).
Like-named read-outs stand apart in the source and are kept apart here.

Columns and labels:
Assay in all cases: Test E pre-/postemergence plant response
Type in all cases: in vivo
[1] = tested on: chamomile (scentless chamomile, Matricaria inodora); settings: Tripleurospermum inodorum, scale 0 to 100, read-out: Plant response rating, Chamomile; for pest or weed control at 16 g/ha: 16 g ai/ha; for pest or weed control at 31 g/ha: 31 g ai/ha; for pest or weed control at 62 g/ha: 62 g ai/ha; for pest or weed control at 125 g/ha: 125 g ai/ha
In short: (§1)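 Pre-emergence: seeds sown in silt loam soil and sprayed with test chemicals in a non-phytotoxic solvent/surfactant mix. Post-emergence: plants at 2–18 cm (1- to 4-leaf stage) in peat/vermiculite medium treated with the same formulation. Visual rating versus controls after 7–21 days, 0 (no effect) to 100 (complete control).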

[2] = tested on: deadnettle (henbit deadnettle, Lamium amplexicaule); settings: scale 0 to 100, read-out: Plant response rating, Deadnettle; for pest or weed control at 16 g/ha: 16 g ai/ha; for pest or weed control at 31 g/ha: 31 g ai/ha; for pest or weed control at 62 g/ha: 62 g ai/ha; for pest or weed control at 125 g/ha: 125 g ai/ha
In short: as §1

[3] = tested on: downy bromegrass (Bromus tectorum); settings: scale 0 to 100, read-out: Plant response rating, Bromegrass, Downy; for pest or weed control at 16 g/ha: 16 g ai/ha; for pest or weed control at 31 g/ha: 31 g ai/ha; for pest or weed control at 62 g/ha: 62 g ai/ha; for pest or weed control at 125 g/ha: 125 g ai/ha
In short: as §1

[4] = tested on: field poppy (Papaver rhoeas); settings: scale 0 to 100, read-out: Plant response rating, Field Poppy; for pest or weed control at 16 g/ha: 16 g ai/ha; for pest or weed control at 31 g/ha: 31 g ai/ha; for pest or weed control at 62 g/ha: 62 g ai/ha; for pest or weed control at 125 g/ha: 125 g ai/ha
In short: as §1

kochia (Kochia scoparia) = settings: Bassia scoparia, scale 0 to 100, read-out: Plant response rating, Kochia; for pest or weed control at 16 g/ha: 16 g ai/ha; for pest or weed control at 31 g/ha: 31 g ai/ha; for pest or weed control at 62 g/ha: 62 g ai/ha; for pest or weed control at 125 g/ha: 125 g ai/ha
In short: as §1

[5] = tested on: speedwell (bird's-eye speedwell, Veronica persica); settings: scale 0 to 100, read-out: Plant response rating, Speedwell; for pest or weed control at 16 g/ha: 16 g ai/ha; for pest or weed control at 62 g/ha: 62 g ai/ha; for pest or weed control at 125 g/ha: 125 g ai/ha
In short: as §1

[6] = tested on: wild buckwheat (Polygonum convolvulus); settings: Fallopia convolvulus, scale 0 to 100, read-out: Plant response rating, Buckwheat, Wild; for pest or weed control at 16 g/ha: 16 g ai/ha; for pest or weed control at 31 g/ha: 31 g ai/ha; for pest or weed control at 62 g/ha: 62 g ai/ha; for pest or weed control at 125 g/ha: 125 g ai/ha
In short: as §1

[7] = tested on: wild mustard (Sinapis arvensis); settings: Brassica, scale 0 to 100, read-out: Plant response rating, Mustard, Wild; for pest or weed control at 16 g/ha: 16 g ai/ha; for pest or weed control at 31 g/ha: 31 g ai/ha; for pest or weed control at 62 g/ha: 62 g ai/ha; for pest or weed control at 125 g/ha: 125 g ai/ha
In short: as §1

wild oat (Avena fatua) = settings: scale 0 to 100, read-out: Plant response rating, Oat, Wild; for pest or weed control at 16 g/ha: 16 g ai/ha; for pest or weed control at 31 g/ha: 31 g ai/ha; for pest or weed control at 62 g/ha: 62 g ai/ha; for pest or weed control at 125 g/ha: 125 g ai/ha
In short: as §1

[8] = tested on: wild radish (Raphanus raphanistrum); settings: scale 0 to 100, read-out: Plant response rating, Radish, Wild; for pest or weed control at 16 g/ha: 16 g ai/ha; for pest or weed control at 31 g/ha: 31 g ai/ha; for pest or weed control at 62 g/ha: 62 g ai/ha; for pest or weed control at 125 g/ha: 125 g ai/ha
In short: as §1

[9] = tested on: windgrass (Apera spica-venti); settings: scale 0 to 100, read-out: Plant response rating, Windgrass; for pest or weed control at 16 g/ha: 16 g ai/ha; for pest or weed control at 62 g/ha: 62 g ai/ha; for pest or weed control at 125 g/ha: 125 g ai/ha
In short: as §1

[10] = post-emergence, 31 g ai/ha, Postemergence

Fc1cccc(Oc2ncc(Br)cn2)c1-c1cc(C(F)F)no1 [Compound 145, 5-bromo-2-[2-[3-(difluoromethyl)-5-isoxazolyl]-3-fluorophenoxy]pyrimidine]
pest or weed control at 16 g/ha ([1]; post-emergence, Postemergence): 20%
pest or weed control at 31 g/ha ([1]; post-emergence, Postemergence): 30%
pest or weed control at 62 g/ha ([1]; post-emergence, Postemergence): 30%
pest or weed control at 125 g/ha ([1]; post-emergence, Postemergence): 30%
pest or weed control at 16 g/ha ([1]; pre-emergence, Preemergence): 5%
pest or weed control at 31 g/ha ([1]; pre-emergence, Preemergence): 100%
pest or weed control at 62 g/ha ([1]; pre-emergence, Preemergence): 100%
pest or weed control at 125 g/ha ([1]; pre-emergence, Preemergence): 100%
pest or weed control at 16 g/ha ([2]; post-emergence, Postemergence): 100%
pest or weed control at 31 g/ha ([2]; post-emergence, Postemergence): 100%
pest or weed control at 62 g/ha ([2]; post-emergence, Postemergence): 100%
pest or weed control at 125 g/ha ([2]; post-emergence, Postemergence): 100%
pest or weed control at 16 g/ha ([2]; pre-emergence, Preemergence): 0%
pest or weed control at 31 g/ha ([2]; pre-emergence, Preemergence): 100%
pest or weed control at 62 g/ha ([2]; pre-emergence, Preemergence): 100%
pest or weed control at 125 g/ha ([2]; pre-emergence, Preemergence): 100%
pest or weed control at 16 g/ha ([3]; post-emergence, Postemergence): 25%
pest or weed control at 31 g/ha ([3]; post-emergence, Postemergence): 35%
pest or weed control at 62 g/ha ([3]; post-emergence, Postemergence): 55%
pest or weed control at 125 g/ha ([3]; post-emergence, Postemergence): 55%
pest or weed control at 16 g/ha ([3]; pre-emergence, Preemergence): 10%
pest or weed control at 31 g/ha ([3]; pre-emergence, Preemergence): 20%
pest or weed control at 62 g/ha ([3]; pre-emergence, Preemergence): 35%
pest or weed control at 125 g/ha ([3]; pre-emergence, Preemergence): 60%
pest or weed control at 16 g/ha ([4]; post-emergence, Postemergence): 100%
pest or weed control at 31 g/ha ([4]; post-emergence, Postemergence): 100%
pest or weed control at 62 g/ha ([4]; post-emergence, Postemergence): 100%
pest or weed control at 125 g/ha ([4]; post-emergence, Postemergence): 100%
pest or weed control at 16 g/ha ([4]; pre-emergence, Preemergence): 100%
pest or weed control at 31 g/ha ([4]; pre-emergence, Preemergence): 100%
pest or weed control at 62 g/ha ([4]; pre-emergence, Preemergence): 100%
pest or weed control at 125 g/ha ([4]; pre-emergence, Preemergence): 100%
pest or weed control at 16 g/ha (kochia (Kochia scoparia); post-emergence, Postemergence): 98%
pest or weed control at 31 g/ha (kochia (Kochia scoparia); post-emergence, Postemergence): 100%
pest or weed control at 62 g/ha (kochia (Kochia scoparia); post-emergence, Postemergence): 100%
pest or weed control at 125 g/ha (kochia (Kochia scoparia); post-emergence, Postemergence): 100%
pest or weed control at 16 g/ha (kochia (Kochia scoparia); pre-emergence, Preemergence): 60%
pest or weed control at 31 g/ha (kochia (Kochia scoparia); pre-emergence, Preemergence): 100%
pest or weed control at 62 g/ha (kochia (Kochia scoparia); pre-emergence, Preemergence): 100%
pest or weed control at 125 g/ha (kochia (Kochia scoparia); pre-emergence, Preemergence): 100%
pest or weed control at 16 g/ha ([5]; post-emergence, Postemergence): 100%
pest or weed control at 31 g/ha [5, 10]: 100%
pest or weed control at 62 g/ha ([5]; post-emergence, Postemergence): 100%
pest or weed control at 125 g/ha ([5]; post-emergence, Postemergence): 100%
pest or weed control at 16 g/ha ([5]; pre-emergence, Preemergence): 95%
pest or weed control at 62 g/ha ([5]; pre-emergence, Preemergence): 100%
pest or weed control at 125 g/ha ([5]; pre-emergence, Preemergence): 100%
pest or weed control at 16 g/ha ([6]; post-emergence, Postemergence): 100%
pest or weed control at 31 g/ha ([6]; post-emergence, Postemergence): 100%
pest or weed control at 62 g/ha ([6]; post-emergence, Postemergence): 100%
pest or weed control at 125 g/ha ([6]; post-emergence, Postemergence): 100%
pest or weed control at 16 g/ha ([6]; pre-emergence, Preemergence): 100%
pest or weed control at 31 g/ha ([6]; pre-emergence, Preemergence): 100%
pest or weed control at 62 g/ha ([6]; pre-emergence, Preemergence): 85%
pest or weed control at 125 g/ha ([6]; pre-emergence, Preemergence): 100%
pest or weed control at 16 g/ha ([7]; post-emergence, Postemergence): 100%
pest or weed control at 31 g/ha ([7]; post-emergence, Postemergence): 100%
pest or weed control at 62 g/ha ([7]; post-emergence, Postemergence): 100%
pest or weed control at 125 g/ha ([7]; post-emergence, Postemergence): 100%
pest or weed control at 16 g/ha ([7]; pre-emergence, Preemergence): 95%
pest or weed control at 31 g/ha ([7]; pre-emergence, Preemergence): 100%
pest or weed control at 62 g/ha ([7]; pre-emergence, Preemergence): 100%
pest or weed control at 125 g/ha ([7]; pre-emergence, Preemergence): 100%
pest or weed control at 16 g/ha (wild oat (Avena fatua); post-emergence, Postemergence): 15%
pest or weed control at 31 g/ha (wild oat (Avena fatua); post-emergence, Postemergence): 30%
pest or weed control at 62 g/ha (wild oat (Avena fatua); post-emergence, Postemergence): 40%
pest or weed control at 125 g/ha (wild oat (Avena fatua); post-emergence, Postemergence): 80%
pest or weed control at 16 g/ha (wild oat (Avena fatua); pre-emergence, Preemergence): 25%
pest or weed control at 31 g/ha (wild oat (Avena fatua); pre-emergence, Preemergence): 30%
pest or weed control at 62 g/ha (wild oat (Avena fatua); pre-emergence, Preemergence): 30%
pest or weed control at 125 g/ha (wild oat (Avena fatua); pre-emergence, Preemergence): 85%
pest or weed control at 16 g/ha ([8]; post-emergence, Postemergence): 95%
pest or weed control at 31 g/ha ([8]; post-emergence, Postemergence): 100%
pest or weed control at 62 g/ha ([8]; post-emergence, Postemergence): 100%
pest or weed control at 125 g/ha ([8]; post-emergence, Postemergence): 100%
pest or weed control at 16 g/ha ([8]; pre-emergence, Preemergence): 15%
pest or weed control at 31 g/ha ([8]; pre-emergence, Preemergence): 15%
pest or weed control at 62 g/ha ([8]; pre-emergence, Preemergence): 85%
pest or weed control at 125 g/ha ([8]; pre-emergence, Preemergence): 100%
pest or weed control at 16 g/ha ([9]; post-emergence, Postemergence): 5%
pest or weed control at 31 g/ha [9, 10]: 10%
pest or weed control at 62 g/ha ([9]; post-emergence, Postemergence): 20%
pest or weed control at 125 g/ha ([9]; post-emergence, Postemergence): 60%
pest or weed control at 16 g/ha ([9]; pre-emergence, Preemergence): 10%
pest or weed control at 62 g/ha ([9]; pre-emergence, Preemergence): 75%
pest or weed control at 125 g/ha ([9]; pre-emergence, Preemergence): 98%
